Results from PubChem BioAssay (NCI).
Several values for one entry are separate records, joined by “and”; a condition that tells them apart may be missing. Equal values may be shown once.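 Compound exposure: 48 hours, 5 concentrations, 96-well plates. Here, GI50 denotes the concentration required for 50% inhibition of growth. TGI: concentration producing complete growth inhibition.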

Legend:
Experiment in all cases: NCI-60 cell line screen, 48 h
CCRF-CEM leukemia = tested on: CCRF-CEM leukemia
SNB-75 CNS = tested on: SNB-75 CNS
HOP-62 NSCLC = tested on: HOP-62 NSCLC
SF-295 CNS = tested on: SF-295 CNS
A498 renal = tested on: A498 renal
SW-620 colon = tested on: SW-620 colon
SF-268 CNS = tested on: SF-268 CNS
MOLT-4 leukemia = tested on: MOLT-4 leukemia
OVCAR-4 ovarian = tested on: OVCAR-4 ovarian
HS 578T breast = tested on: HS 578T breast

Compound | TGI (CCRF-CEM leukemia) [µM] | TGI (SNB-75 CNS) | TGI (HOP-62 NSCLC) [µM] | TGI (SF-295 CNS) | TGI (A498 renal) | TGI (SW-620 colon) | TGI (SF-268 CNS) [µM] | TGI (MOLT-4 leukemia) [µM] | TGI (OVCAR-4 ovarian) | GI50 (CCRF-CEM leukemia) [nM] | GI50 (SNB-75 CNS) | GI50 (HOP-62 NSCLC) [nM] | GI50 (SF-295 CNS) | GI50 (A498 renal) | GI50 (SW-620 colon) | GI50 (HS 578T breast) [nM] | TGI (HS 578T breast) | GI50 (MOLT-4 leukemia) [nM] | GI50 (OVCAR-4 ovarian) | GI50 (SF-268 CNS) [µM]
O=C1Cc2ccccc2N1/N=C\c1ccc(O)cc1 | > 100 | 70.5 µM | > 100 | > 100 µM | > 100 µM | > 100 µM | > 100 | > 100 | > 100 µM | – | – | – | – | – | – | – | – | – | – | –
COC1=NN2C(OC)(c3ccccc3)c3c(-c4ccccc4)sc(-c4ccccc4)c3C2(c2ccccc2)S1 (stereo unspecified) | > 100 | > 100 µM | > 10 | > 100 µM | > 100 µM | > 100 µM | > 100 | > 100 | – | – | – | – | – | – | – | – | – | – | – | –
CC1SC2=NC3=C(c4ccccc4C3=O)C(c3ccc(Br)cc3)N2C1=O (stereo unspecified) | > 100 | 96.9 µM | > 100 | > 100 µM | > 100 µM | > 100 µM | > 100 | > 100 | > 100 µM | – | – | – | – | – | – | – | – | – | – | –
CCOC(=O)c1c(-c2[nH]c(C(=O)OCc3ccccc3)c(C)c2C(=O)OCC)[nH]c(C(=O)OCc2ccccc2)c1C | – | 77.2 µM | > 100 | > 100 µM | > 100 µM | > 100 µM | > 100 | > 100 | – | – | – | – | – | – | – | – | – | – | – | –
NNC(=O)CC(=O)Nc1ccccc1F | > 100 | > 100 µM | > 100 | > 100 µM | > 100 µM | > 100 µM | > 100 | > 100 | > 100 µM | – | – | – | – | – | – | – | – | – | – | –
CC[C@](O)(C(=O)O)c1cc2n(c(=O)c1CO)Cc1cc3ccccc3nc1-2 | 4.04 | 0.201 µM and 0.0714 µM and 0.343 µM | – | 0.101 µM and 0.0956 µM and 0.107 µM | 0.114 µM and 0.261 µM and 0.145 µM | 25 µM and 34.1 µM | – | – | 7.5 µM and 0.856 µM | < 2.5 | 3.91 nM and 16 nM | 25 | 2.9 nM and < 13.4 nM | 15 nM and 44.8 nM | 94.8 nM and 71.3 nM and 25 nM | 1480 | 25 µM and 13.7 µM | < 2.5 | 305 nM and 71.5 nM | –
C#CCOCn1cnc2ncnc(Cl)c21 | > 100 | > 100 µM | > 100 | > 100 µM | > 100 µM | > 100 µM | > 100 | > 100 | > 100 µM | – | – | – | – | – | – | – | – | – | – | –
O=C1Nc2ccccc2C12CC(c1ccccc1)=NN2 (stereo unspecified) | > 100 | 59.4 µM | > 100 | > 100 µM | 9.24 µM | > 100 µM | > 100 | > 100 | > 100 µM | 5520 | 2980 nM | 8790 | 4840 nM | 1850 nM | 3750 nM | – | – | 8410 | 23600 nM | 11.9
C(=C1\CCC/C(=C/c2ccccc2)C1=NNc1ccccc1)/c1ccccc1 | > 100 | > 100 µM | > 100 | > 100 µM | > 100 µM | > 100 µM | > 100 | > 100 | > 100 µM | – | – | – | – | – | – | – | – | – | – | –
OCCc1cnco1 | > 100 | > 100 µM | > 100 | > 100 µM | – | > 100 µM | > 100 | > 100 | > 100 µM | – | – | – | – | – | – | – | – | – | – | –
CC1=C(C(=O)Nc2ccccc2C)C(c2ccc(N(C)C)cc2)C(C(=O)Nc2ccccc2C)=C(C)N1 | > 100 | – | > 100 | > 100 µM | > 100 µM | > 100 µM | > 100 | > 100 | – | – | – | – | – | – | – | – | – | – | – | –
CSC(=S)N(C)NC(=O)c1cccc(C(=O)NN(C)C(=S)SC)n1 | > 100 | 98 µM | 37.3 | 16 µM | > 100 µM | > 100 µM | 43.9 | > 100 | 41 µM | – | – | – | – | – | – | – | – | – | – | –
COc1cc2c(c3oc(-c4ccc5c(c4)OCO5)c(O)c(=O)c13)CCC(C)(C)O2 | > 100 | > 100 µM | – | > 100 µM | > 100 µM | > 100 µM | – | > 100 | – | – | – | – | – | – | – | – | – | – | – | –
CN(C)c1nc(N(C)C)nc(N(C)CN(C)c2nc(N(C)C)nc(N(C)C)n2)n1 | > 100 | > 100 µM | > 100 | > 100 µM | > 100 µM | > 100 µM | > 100 | > 100 | > 100 µM | – | – | – | – | – | – | – | – | – | – | –
COc1cc(NCC(C#N)C#N)ccc1N=Nc1ccc([N+](=O)[O-])cc1 | > 100 | > 100 µM | > 100 | > 100 µM | > 100 µM | > 100 µM | > 100 | > 100 | > 100 µM | – | – | – | – | – | – | – | – | – | – | –
Cc1cn(C2C=CC(=O)C(C)O2)c(=O)[nH]c1=O (stereo unspecified) | 32.5 | 29.1 µM | 43.2 | 31.3 µM | > 100 µM | 28.8 µM | 33.5 | 40.9 | – | – | – | – | – | – | – | – | – | – | – | –
CCCNC(=O)c1cc2ccccc2cc1C(=O)OC | > 100 | 75.8 µM | > 100 | > 100 µM | > 100 µM | > 100 µM | > 100 | > 100 | > 100 µM | – | – | – | – | – | – | – | – | – | – | –
N/C(=N\OC(=O)NC(Cl)=C(Cl)Cl)c1cc(C(F)(F)F)cc(C(F)(F)F)c1 | 32.2 | – | 34.2 | 34.8 µM | 32.3 µM | 40.3 µM | 45.6 | 29.6 | – | – | – | – | – | – | – | – | – | – | – | –
CSc1nc2c(nc(N)n2C2OCC(O)C(O)C2O)c(=O)[nH]1 (stereo unspecified) | > 100 | > 100 µM | > 100 | > 100 µM | > 100 µM | > 100 µM | > 100 | > 100 | > 100 µM | – | – | – | – | – | – | – | – | – | – | –
CNC1=C(C)C(=O)C(C)=C(C(C)(C)CC(=O)n2cc(F)c(=O)[nH]c2=O)C1=O | > 100 | > 100 µM | > 53.8 | > 100 µM | > 100 µM | > 100 µM | > 100 | > 100 | > 100 µM | – | – | – | – | – | – | – | – | – | – | –
O=C1C=C(N2CC2)c2ccccc2C1=O | 6.23 | 3.12 µM | 3.13 | 3.12 µM | 2.84 µM | 2.92 µM | 3.71 | 5.77 | 2.8 µM | 2320 | 1570 nM | 1740 | 1630 nM | 1360 nM | 1340 nM | – | – | 1990 | 1480 nM | 1.79
COc1ccc(-c2cc(-c3ccccc3)c(C#N)c(=O)[nH]2)cc1 | > 100 | > 100 µM | > 100 | > 100 µM | > 100 µM | > 100 µM | > 100 | > 100 | > 100 µM | – | – | – | – | – | – | – | – | – | – | –
